Measured values: patent US20060040870A1, “Enhancement of apoptosis by caspase-9 inhibitors” (priority 2004, published 2006)
The star is where a group is joined. Cbz = O=C(OCc1ccccc1)*; CH2F = FC*

Tests used:
[1] = system: CCRF-CEM T lymphoma cell line; experiment: Apoptosis by Annexin V staining and flow cytometry, CCRF-CEM; format: cell-based; conditions: 50 μM, 18 hours
Description: (§1) FIG. 4 is a pair of graphs showing the effect of […] on various cell lines, as determined by Annexin V staining and flow cytometry. The cells included the B-cell precursor ALL cell lines […], and NALM-6, the RAMOS, RAJI, and DAUDI Burkitt lymphoma cell lines, the CCRF-CEM, JURKAT, and H9 T lymphoma cell lines, the K-562 erythroleukemia cell line, and resting or activated (i.e., CD3/CD28 cross-linked) normal human T cells. […] Flow cytometry. Quantitation of apoptotic events was conducted using a FACS Calibur (BD Immunocytometry Systems). All analyses were conducted on cells with lymphoid light scatter characteristics (i.e., low to medium forward scatter and low 90° side scatter). iii. Annexin V. […] Cells were stained according to the manufacturers recommendations.

[2] = system: H9 T lymphoma cell line; experiment: Apoptosis by Annexin V staining and flow cytometry, H9; format: cell-based; conditions: H9, 50 μM, 18 hours
Description: as §1

[3] = system: DAUDI Burkitt lymphoma cell line; experiment: Apoptosis by Annexin V staining and flow cytometry, DAUDI; format: cell-based; conditions: 50 μM, 18 hours
Description: as §1

[4] = system: leukemic cell lines; experiment: Staurosporine response of panel of leukemic cell lines, Annexin V; format: cell-based; conditions: staurosporine plus 50 μM C9i; leukemic cells that responded to C9i alone
Description: as §1, with “recommendations. The inventors expanded their analysis of […] to other leukemic cell lines. […] The JURKAT T lymphoma cell line was also sensitive. In contrast, the RAJI and DAUDI Burkitt lymphoma cell lines, the H9 T lymphoma cell line, and the K-562 erythroleukemia cell line were insensitive to […]. […] The inventors also tested whether […] would potentiate the apoptotic effect of the widely used serine/threonine kinase inhibitor staurosporine. […] Thus, the leukemic cell lines were generally responsive to both […] and staurosporine, or responsive to neither.” for “recommendations.”

[5] = system: RAJI Burkitt lymphoma cell line; experiment: Apoptosis by Annexin V staining and flow cytometry, RAJI; format: cell-based; conditions: 50 μM, 18 hours
Description: as §1

[6] = system: BLIN-4L cells; experiment: Apoptosis by Annexin V staining and flow cytometry, BLIN-4L; format: cell-based, human; conditions: 50 μM
Description: Flow cytometry. Quantitation of apoptotic events was conducted using a FACS Calibur (BD Immunocytometry Systems). All analyses were conducted on cells with lymphoid light scatter characteristics (i.e., low to medium forward scatter and low 90° side scatter).
iii. Annexin V. FITC-labeled Annexin V (BD Pharmingen, San Diego, Calif.) was used to detect external phosphatidylserine residues appearing on the external surface of early apoptotic cells (Koopman Blood. 1994;84:1415-1420). Cells were stained according to the manufacturers recommendations.
General experimental strategy. BLIN cell lines were removed from fibroblast monolayers, washed once and resuspended to 7.5×10^5/ml in X-VIVO 10. Two hundred μL of resuspended cells were added to 96-well flat-bottom microtiter plates (ISC Bioexpress, Kaysville, Vt.), followed by 0.5-1.0 μL of caspase inhibitors in DMSO. An identical volume of DMSO alone was added to separate wells as a vehicle control. This final DMSO concentration of 0.25-0.5% vol/vol had no adverse affect on any of the BLIN cell lines. At the indicated times the entire content of individual wells was harvested and stained in the fluorescent protocols described above.
The inventors carried out experiments to test the influence of specific amino acid substitutions on the proapoptotic activity Z-LEHD-fmk. […]

With “Z-LEHD-fmk (Cbz-LEHD-CH2F; SMILES CC(C)C[C@H](NC(=O)OCc1ccccc1)C(=O)N[C@@H](CCC(=O)O)C(=O)N[C@@H](Cc1c[nH]cn1)C(=O)N[C@@H](CC(=O)O)C(=O)CF) [C9i]” the “sensitivity (fold-increase in Annexin V+ cells vs DMSO)” value [1] was “extremely sensitive”, the “sensitivity (fold-increase in Annexin V+ cells vs DMSO)” value [2] was “insensitive” and the “sensitivity (fold-increase in Annexin V+ cells vs DMSO)” value [3] was “insensitive”. The “potentiation of the apoptotic effect of staurosporine” value [4] was “enhanced the staurosporine response”, the “sensitivity (fold-increase in Annexin V+ cells vs DMSO)” value [5] was “insensitive” and the “apoptosis (Annexin V and TMRE staining) versus DMSO vehicle” value ([6]; BLIN-4L removed from adherent fibroblasts, 2-hour time points up to 8 hours) was “promoted apoptosis in BLIN-4L, albeit not as pronounced as in BLIN-3”. The “sensitivity (fold-increase in Annexin V+ cells vs DMSO)” value ([6]; BLIN-4L, 18 hours) was “sensitive”.
